# Reference: US20220008444A1, “COMPOSITIONS FOR USE IN THE PREVENTION OR TREATMENT OF NECROTIZING ENTEROCOLITIS IN INFANTS AND YOUNG CHILDREN” (SOCIÉTÉ DES PRODUITS NESTLÉ S.A., priority 2013, published 2022)
# Tested on: NFkB
# Assay: NFkB reporter cell line (HT29) stimulated with TNFalpha or gram negative bacterium, in conditioned media
# Assay type: cell-based
# Conditions: HT29 NFkB reporter cells; cell culture media fermented with Bifidobacterium longum subsp infantis and the substance; stimulation with TNFalpha or S. typhymurium
# Method: HT29 cells harbouring an expression plasmid with the NFkB promoter controlling an alkaline phosphatase were treated with different media and challenged with the proinflammatory TNFalpha or a gram negative bacterium such as Salmonella typhimurium. Treatments were cell culture media fermented with Bifidobacterium longum subsp infantis and (i) lactose or (ii) Lacto-N-tetraose (LNT).
# The cells harbored an expression plasmid with the NF-κB promoter controlling an alkaline phosphatase so that stimulation by TNF-α or a gram negative bacterium would be indicated by fluorescence generated by interaction of the alkaline phosphatase with a fluorogenic substrate. […] This indicates LNT to exert a strong anti-inflammatory effect. Conditioned media with LNT lead to higher resistance of the cells upon proinflammatory TNFalpha or a gram negative bacterial stimulation. Intestinal epithelia cells in media conditioned by LNT (lacto-N-tetraose) and Bifidobacterium fermentation products are more resistant to proinflammatory stimulation by TNFalpha as compared to cells in a control medium conditioned by lactose and Bifidobacterium fermentation products.
row,SMILES,activation of the inflammation marker nuclear factor kappa B (NFkB)
1,"CC(=O)N[C@H]1[C@H](O[C@H]2[C@@H](O)[C@@H](CO)O[C@@H](O[C@H]3[C@H](O)[C@@H](O)C(O)O[C@@H]3CO)[C@@H]2O)O[C@H](CO)[C@@H](O)[C@@H]1O[C@@H]1O[C@H](CO)[C@H](O)[C@H](O)[C@H]1O (some centres unmarked) [LNT, lacto-N-tetraose]",no stimulation
2,OC[C@H]1O[C@@H](O[C@H]2[C@H](O)[C@@H](O)C(O)O[C@@H]2CO)[C@H](O)[C@@H](O)[C@H]1O (some centres unmarked) [lactose],very strong stimulation
